# System: Bacillus subtilis B1, B2, and B3 strains
# Test: PCR with primers for unique signature sequences
# Conditions: amplicon generated by the forward/reverse primer pair (LSBS n-F / n-R) specific for Bacillus subtilis B1, B2, B3 strains
# Excerpt: Table 7 below depicts thirteen (13) pairs of primers specifically designed for the Bacillus subtilis B1, B2, and B3 strains. All 13 primers generate unique PCR amplicons for identifying the Bacillus subtilis strains of the present invention. The subsequent PCR products are unique and are not found performing a search (i.e., BLAST search) in a database such as the GenBank database.
row,Substance,PCR Product Size (bp)
1,"LSBS 2-F (DNA TCAATTCCTCTGCACCACTTAT; listed as DNA, chemistry not given here)",906
2,"LSBS 6-F (DNA CACCGAACTCTGCTGAGAAA; listed as DNA, chemistry not given here)",523
3,"LSBS 11-F (DNA ATGCGGCTAGACATGGATATG; listed as DNA, chemistry not given here)",687
4,"LSBS 12-F (DNA TGTCCCTCTTTAGGTGCTATTG; listed as DNA, chemistry not given here)",954
5,"LSBS 8-F (DNA GCTGTAGACGACTGGGTACTA; listed as DNA, chemistry not given here)",750
6,"LSBS 10-F (DNA CAGATGAAGTTGGTGGTGTTTC; listed as DNA, chemistry not given here)",743
7,"LSBS 1-F (DNA GGACACAGATCATTGGGAGTT; listed as DNA, chemistry not given here)",769
8,"LSBS 3-F (DNA CGGAGTTTGTTAGCGAAGTTATTG; listed as DNA, chemistry not given here)",543
9,"LSBS 5-F (DNA CCATTAGGGTCAACATGGTCTAA; listed as DNA, chemistry not given here)",273
10,"LSBS 7-F (DNA CCTCTGCCCAAGACATATCAA; listed as DNA, chemistry not given here)",913
11,"LSBS 4-F (DNA CATGCGGAACTCCAATTTCTTC; listed as DNA, chemistry not given here)",263
12,"LSBS 13-F (DNA CCCTCTAGCTCTTTCTTCTTCAC; listed as DNA, chemistry not given here)",496
13,"LSBS 9-F (DNA GCCATCAGGCTGTTTGTAGA; listed as DNA, chemistry not given here)",679
